≈ marks a conversion by molar mass, not a printed value.
How the values were obtained:
Type in all cases: functional
Conditions in all cases: 336 h
[1] = tested on: Mycobacterium tuberculosis; experiment: Antimycobacterial activity against isoniazid-,rifampin-,ethambutol-,streptomycin-,kanamycin-,ofloxacin-resistant Mycobacterium tuberculosis after 14 days
[2] = tested on: Mycobacterium tuberculosis; experiment: Antimycobacterial activity against isoniazid-,rifampin-,ethambutol-,kanamycin-,ofloxacin-resistant Mycobacterium tuberculosis after 14 days
[3] = tested on: Mycobacterium tuberculosis; experiment: Antimycobacterial activity against isoniazid-,rifampin-,ethambutol-,rifabutin-resistant Mycobacterium tuberculosis after 14 days

| SMILES | MIC90 [1] [µM] | MIC90 [2] [µM] | MIC90 [3] [µM] |
| --- | --- | --- | --- |
| O=C(OCc1ccccc1)c1coc(-c2ccccc2)n1 | 4.4 (≈ 1.23 µg/mL) | 8.9 (≈ 2.49 µg/mL) | – |
| O=C(OCc1ccccc1)c1csc(-c2ccccc2)n1 | 16.9 (≈ 4.99 µg/mL) | 16.9 (≈ 4.99 µg/mL) | 33.9 (≈ 10 µg/mL) |
| Cc1ccn2c(C(=O)OCc3ccccc3)c(C)nc2c1 | < 0.04 | < 0.04 | 0.57 (≈ 0.16 µg/mL) |
| O=[N+]([O-])c1cn2c(n1)OC[C@@H](OCc1ccc(OC(F)(F)F)cc1)C2 [PRETOMANID] | 0.86 (≈ 0.309 µg/mL) | 0.22 (≈ 0.079 µg/mL) | 0.45 (≈ 0.162 µg/mL) |

— ChEMBL document CHEMBL2146467, “Generation and exploration of new classes of antitubercular agents: The optimization of oxazolines, oxazoles, thiazolines, thiazoles to imidazo[1,2-a]pyridines and isomeric 5,6-fused scaffolds” (Bioorg Med Chem, 2012)
